Assay results from PubChem BioAssay (NCI).
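Cultured in 96-well plates, cells were exposed to test compound for 48 hours across five concentrations. GI50 is the concentration that inhibits growth by half. TGI: total growth inhibition.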

Assays:
Assay in all cases: inhibition of tumour cell growth, NCI panel, 48 h
CCRF-CEM leukemia = tested on: CCRF-CEM leukemia
DLD-1 colon = tested on: DLD-1 colon
OVCAR-4 ovarian = tested on: OVCAR-4 ovarian
M14 melanoma = tested on: M14 melanoma
SNB-19 CNS = tested on: SNB-19 CNS
RXF 393 renal = tested on: RXF 393 renal
NCI-H522 lung = tested on: NCI-H522 lung
HOP-18 NSCLC = tested on: HOP-18 NSCLC
DMS 114 small cell lung = tested on: DMS 114 small cell lung
BT-549 breast = tested on: BT-549 breast

| Compound | TGI (CCRF-CEM leukemia) | TGI (DLD-1 colon) | TGI (OVCAR-4 ovarian) | TGI (M14 melanoma) | TGI (SNB-19 CNS) | TGI (RXF 393 renal) | TGI (NCI-H522 lung) | TGI (HOP-18 NSCLC) | TGI (DMS 114 small cell lung) | GI50 (CCRF-CEM leukemia) | GI50 (OVCAR-4 ovarian) | GI50 (M14 melanoma) | GI50 (BT-549 breast) | TGI (BT-549 breast) | GI50 (SNB-19 CNS) | GI50 (NCI-H522 lung) | GI50 (RXF 393 renal) |
| --- | --- | --- | --- | --- | --- | --- | --- | --- | --- | --- | --- | --- | --- | --- | --- | --- | --- |
| O=C1Cc2c([nH]c3ccccc23)-c2ccccc2N1 | > 100 µM | > 100 µM | > 100 µM | > 100 µM | > 100 µM | 40.7 µM | 62.6 µM | > 100 µM |  |  |  |  |  |  |  |  |  |
| CC1=C(C(=O)Nc2cc(=O)n(C)c(=O)n2C)C(c2cccc([N+](=O)[O-])c2)C(C(=O)Nc2cc(=O)n(C)c(=O)n2C)=C(C)N1 | > 100 µM | > 100 µM | > 100 µM | > 100 µM | > 100 µM | > 100 µM | > 100 µM |  | > 100 µM |  |  |  |  |  |  |  |  |
| C#CCOCn1cnc2c(Sc3c([N+](=O)[O-])ncn3C)ncnc21 | > 100 µM | > 100 µM | > 100 µM | > 100 µM | > 100 µM | > 100 µM | > 100 µM |  | > 100 µM |  |  |  |  |  |  |  |  |
| CCC(=O)Nc1ccccc1C#C/C=C\C#Cc1ccccc1SC | 23.7 µM |  | > 100 µM | > 100 µM | > 100 µM | 1.84 µM | > 100 µM |  |  | 2.75 µM | 30.1 µM | 12 µM | 14.7 µM | > 100 µM | 43.8 µM | 8.89 µM |  |
| C=C1C(=O)O[C@H]2[C@H]1CC/C(COC(=O)C(=O)c1cn(C)c3ccc(Cl)cc13)=C\CC[C@@]1(C)O[C@@H]21 | 10.9 µM |  | 12.4 µM | 2.74 µM | 6.13 µM | 2.33 µM | 2.68 µM |  |  | 0.338 µM | 2.26 µM | 1.11 µM | 0.234 µM | 0.618 µM | 2.16 µM | 1.24 µM | 1.06 µM |
| c1cc(N2CCCN(c3ccc(C4=NCCCN4)cc3)CC2)ccc1C1=NCCCN1 | > 100 µM |  | > 100 µM | > 100 µM | > 100 µM | > 100 µM | > 100 µM |  |  | > 100 µM | > 100 µM | > 100 µM | > 100 µM | > 100 µM | > 100 µM | > 100 µM | > 100 µM |
| O=c1ccs[nH]1 | 17.2 µM |  | 32.5 µM | 26.2 µM | > 89.1 µM | 21 µM | 1.75 µM |  |  |  |  |  |  | 40.3 µM |  |  |  |
| COC(=O)c1cc2c3ccccc3n3c(=O)c4cc5ccccc5nc4c(n1)c23 | > 100 µM |  | > 100 µM | > 100 µM | > 100 µM | > 100 µM | > 100 µM |  |  | > 100 µM | > 100 µM | > 100 µM | > 100 µM | > 100 µM | > 100 µM | > 100 µM | > 100 µM |
| CCOC(=O)NC1C2CC(=O)OC(O2)C1OC(C)=O (stereo not given) | > 100 µM | > 100 µM | > 100 µM | > 100 µM | > 100 µM | > 100 µM | > 100 µM | > 100 µM |  |  |  |  | > 100 µM | > 100 µM |  |  |  |
| O=C1O/C(=C\c2ccccc2)N(c2ccccc2)C1=O | > 100 µM |  | > 100 µM | > 100 µM | > 100 µM | > 100 µM | > 100 µM |  |  |  |  |  |  | > 100 µM |  |  |  |
| O=C(c1ccccc1)c1c(-c2ccccc2)sc2nc3ccccc3nc12 | > 100 µM |  | > 100 µM | > 100 µM | > 100 µM | > 100 µM | > 100 µM |  | > 100 µM |  |  |  |  |  |  |  |  |
| CNC(=O)c1ccc(N2C(=S)N(c3ccc(C#N)c(C(F)(F)F)c3)C(=O)C2(C)C)cc1F | > 100 µM |  | > 100 µM | > 65.3 µM | > 100 µM | > 66 µM | > 100 µM |  |  | 30 µM | 31.8 µM | 32.4 µM | 22.3 µM | > 73.4 µM | > 61.2 µM | 50.9 µM | 35.8 µM |
| Cc1occc1C(=S)Nc1ccc(Cl)c(C(=O)OC(C(C)C)C(C)C)c1 | 33 µM |  | 41.9 µM | 35.3 µM | 58.4 µM | 33.7 µM | 25.9 µM |  |  |  |  |  |  | 34.6 µM |  |  |  |
| CCCN(CCC)c1ccc(/C=C/c2ccc3cc(OCC)ccc3n2)cc1 | > 100 µM |  | > 100 µM | > 100 µM | > 100 µM | 64.1 µM | > 100 µM |  |  | 54.3 µM | 72.7 µM | > 100 µM | > 100 µM | > 100 µM | > 100 µM | 35.1 µM | 5.23 µM |
| CNC(=S)NC(=O)c1c(Cl)n(C(=O)OC(C)(C)C)c2ccccc12 | > 100 µM |  | > 100 µM | > 100 µM | > 100 µM | > 100 µM | 90.9 µM |  |  | 35.4 µM | > 100 µM | 83 µM | 53.2 µM | > 100 µM | 79.9 µM | 30.6 µM | 48.5 µM |
| CC(=O)N1C/C(=C/c2ccc(Cl)cc2)C(=O)/C(=C/c2ccc(Cl)cc2)C1 | 3.03 µM |  | 3.22 µM | 2.11 µM | 2.49 µM | 1.61 µM | 2.83 µM |  |  | 0.319 µM | 0.795 µM | 0.735 µM | 0.435 µM | 1.32 µM | 1.14 µM | 1.35 µM | 0.546 µM |
| C=C(NC(=O)C(=C)NC(=O)c1csc(C2=NC3c4csc(n4)C4NC(=O)c5csc(n5)C(C(C)(O)C(C)O)NC(=O)C5CSC(=N5)C(=CC)NC(=O)C(C(C)O)NC(=O)c5csc(n5)C3(CC2)NC(=O)C(C)NC(=O)C(=C)NC(=O)C(C)NC(=O)C(C(C)CC)NC2C=Cc3c(C(C)O)cc(nc3C2O)C(=O)OC4C)n1)C(N)=O (stereo not given) | 5.24 µM |  | > 100 µM | 12.7 µM | > 100 µM | 7.88 µM | 4.76 µM |  |  | 1.83 µM | 9.45 µM | 3.49 µM | 2.1 µM | 4.71 µM | 54 µM | 2.07 µM | 2.44 µM |
| Cc1cccc(C)c1CO | > 100 µM | > 100 µM | > 100 µM | > 100 µM | > 100 µM | > 100 µM | > 100 µM |  | > 100 µM |  |  |  |  |  |  |  |  |
